{
  "source": "patent US20220039386A1",
  "about": "“METHOD FOR CONTROLLING PESTS OF RAPESEED PLANTS” (BASF SE, priority 2018, published 2022)",
  "key": {"Phyllotreta striolata": {"tested_on": "Phyllotreta striolata", "test": "Canola foliar treatment, striped flea beetle mortality", "type": "in vivo", "procedure": "1. Canola-Striped Flea Beetle, Phyllotreta striolata:\nCanola foliar treatment: Before application, construction paper was placed at the base of each plant to catch spray solution and therefore preventing beetle contact with contaminated soil and pots (allowing only the plants to be treated). Canola seedlings were treated at the first true leaf stage in a spray chamber at 300 L/ha with a three nozzle (TX-6) flat boom. Plants were allowed to dry, paper was removed, and plants were transferred to a greenhouse to hold over night. At infest, three plants (replicates) per treatment were placed into a bucket. Twenty adult flea beetles (mix sex) were aspirated into a vial and placed in the center of the bucket. The container was closed and placed into a Percival at 25 C 50% RH. Mortality evaluation was made on 6 DAI."}, "Meligethes aeneus": {"tested_on": "Meligethes aeneus", "test": "Oilseed rape inflorescence dip (foliar application), pollen beetle control", "type": "in vivo", "procedure": "2. Oilseed Rape—Pollen Beetle, Meligethes aeneus:\nFoliar application: Test units consisted of a plastic cup with a hole in the bottom and a glass vial below that hole, containing irrigation water. Oil seed rape inflorescences were dipped into the treatment solutions and after drying placed inside the plastic cups. Each cup was sealed with a perforated, transparent lid. Ten adult pollen beetles, field collected, were added to each cup. Each treatment was replicated three times. Pollen beetle survival was assessed 3 days after application."}},
  "data": [
    {"compound": "C[n+]1c([O-])c(-c2ccccc2)c(=O)n2c1SC[C@@H]2c1cnc(Cl)s1", "note": "[Compound I-R-1]", "values": [
      {"measurement": "mortality at 600 ppm", "setting": "Phyllotreta striolata; Phyllotreta striolata, in Brassica napus, 600 ppm, foliar spray 300 L/ha on canola seedlings at first true leaf, adult flea beetles, evaluation 6 DAI", "result": "≥ 65", "unit": "%"},
      {"measurement": "flea beetle control (summary in words)", "setting": "Phyllotreta striolata; canola foliar treatment, Table 1", "result": "good flea beetle control"},
      {"measurement": "Percent control (%) A03", "setting": "Meligethes aeneus; 72 g ai/ha, oil seed rape inflorescences dipped, field collected adult pollen beetles, assessed 3 days after application", "result": 47.8, "unit": "a %"},
      {"measurement": "efficacy against the adults of pollen beetle (summary in words)", "setting": "Meligethes aeneus; foliar application", "result": "good efficacy"}
    ]}
  ]
}
